Reference: patent US10336808B2, “MHC peptide complexes and uses thereof in infectious diseases” (priority 2007, dated 2019)

Tests used:
Assay type in all cases: cell-based, human
[1] = tested on: T2 cells loaded with peptide; assay: 51-Cr release assay of expanded T cell clones
Procedure: The ten expanded T cell clones isolated by Flow sorting as shown in example 39 were tested for their specificity by analysis in a standard 51-Cr release assay. […] One of these BclX(L)173-182 specific CD8 T-cell clones [Clone 9] were expanded for further analyses.

[2] = tested on: Bcl-X(L)-specific, CD8 positive T cells in PBL; assay: ELISPOT ex vivo with BclX(L) peptide; details: PBL from a breast cancer patient, with vs without peptide, FIG. 15
Procedure: In example 22 the best binding BclX(L) 10-mer peptide for HLA-A*0201 was identified to be […] (SEQ ID NO.: 46196). This peptide has then been tested in ELISPOT to see if it were able to detect the presence Bcl-X(L)-specific, CD8 positive T cells in PBL (Peripheral Blood Lymphocytes) from a breast cancer patient. PBL from a breast cancer patient was analyzed by ELISPOT ex vivo either with or without the Bcl-X(L)173-182 peptide ([…] (SEQ ID NO.: 46196)), […] in doublets. The number of spots was counted using the Immunospot Series 2.0 Analyzer (CTL Analysers).

[3] = tested on: T2 cells pulsed with peptide; assay: 51Cr-release assays with Bcl-X(L)173-182 specific clone 9
Source text: The Bcl-X(L)173-182 specific clone 9 was expanded for additional 2 weeks before the cytotoxic potential was examined further in 51Cr-release assays.

[4] = CD8 T-cell clones 8, 9, 10, 11 and 12, FIG. 17

Sequence	lysis of peptide pulsed T2 cells [1, 4]	ELISPOT detection of Bcl-X(L)-specific CD8 positive T cells (number of spots) [2]	lysis of peptide pulsed T2 cells ([1]; expanded clones 7, 13, 15, 17 and 18)	cell lysis of T2 cells pulsed with different concentrations of peptide ([3]; clone 9, E:T ratio 1:1, FIG. 18)	cell lysis of peptide pulsed T2 cells ([3]; clone 9, three E:T ratios, vs irrelevant peptide, FIG. 18)
GLQHWVPEL [BA4697-105, irrelevant peptide, reference compound]	without killing	–	–	–	–
YLNDHLEPWI	effectively lysed	clearly shows the presence of BclX(L) specific T-cells	did not show specific lysis	significant even at low concentrations	necessary to get killing of the target cell
